The nature of the series: gradient 5% acetonitrile 3 min, to 50% in 2 min, to 85% in 15 min, held 3 min, 100 µL/min. To be noted: column: Zorbax Extend-C18 2.1 x 50 mm; eluents: water / acetonitrile, 0.1% formic acid. The procedure, abridged: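 Each retention time is based on an adduct peak selected computationally and verified by manual inspection. Measurements used HPLC–quadrupole time-of-flight mass spectrometry in positive and negative ionization mode on mixtures of ~100 pure standards. Chromatography ran on a Zorbax Extend-C18 column (2.1 × 50 mm, 1.8 μm) at 100 μL/min with water and acetonitrile, each containing 0.1% formic acid, and dead and dwell volumes of 40 μL and 900 μL.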
In the case of `CN(CC1(C)CCOCC1)S(=O)(=O)c1cccc(F)c1`, the RP-LC retention time is 895 s. `COc1cccc(S(=O)(=O)N2CCC(N3C[C@H](OC)[C@@H]3c3ccncc3)CC2)c1` displayed an RP-LC retention time of 625 s.

`CCCNC(=O)C1CCN(Cc2cc3ccccc3n2Cc2cccc(Cl)c2)CC1` displayed an RP-LC retention time of 756 s.

The molecule `COC(=O)c1c(NCc2ccc(C(F)(F)F)cc2)c2cc(F)ccc2[nH]c1=O` had an RP-LC retention time of 840 s. The value for `CN(C)c1ccc(CNC(=O)c2cc3n(n2)CC(C)(C(=O)NCc2ccccc2)N(C)C3=O)cc1` (stereo not drawn) was 607 s. Molecule `CCn1c(=O)c(C)nc2cc(C(=O)NCCc3c[nH]c4ccc(Cl)cc34)ccc21` displayed an RP-LC retention time of 833 s.

`O=C(NCC(=O)N1CCN(c2ccccn2)CC1)c1cc2ccccc2[nH]1` gave an RP-LC retention time of 600 s. To `COc1cccc(N2CCN(C(=O)C3CCN(c4cnc5nccnc5c4)CC3)CC2)c1` belongs 728 s; to `COc1ccc(C2CC(=O)c3c(C)nc(N4CCN(c5ccccn5)CC4)nc3C2)c(OC)c1` (stereo not drawn), 765 s.

Turning to `Cc1nnc(-c2cc(C)n(CC(=O)Nc3ccc(Cl)cc3)c2C)o1`, the RP-LC retention time was determined as 820 s. The value for `COCC1(O)CCOC2(CCN(Cc3ccc(F)cc3)CC2)C1` (stereo not drawn) was 654 s.

In turn, `O=C(Nc1cccc(Br)c1)N1CCCC1c1nc(-c2ccc(F)cc2F)no1` (stereo not drawn) registered an RP-LC retention time of 1060 s.

Consider `CCCCOc1ccc(-c2nc(C3CC(=O)N(c4ccc(F)cc4)C3)no2)cc1` (stereo not drawn), for which the RP-LC retention time amounted to 1240 s. To `COc1ccc(Cl)cc1NC(=O)c1cc(C2CC2)n2nccc2n1` belongs 1210 s; to `CC(C)NC(=O)c1cn2c(n1)CCCC2`, 545 s. The molecule `Cc1ccccc1NC(=O)C1CC(=O)N(c2ccc3c(c2)CCN3C(=O)C2CCC2)C1` (stereo not drawn) gave an RP-LC retention time of 803 s. To `O=C(NCc1ccccc1)C1CCN(C(=O)c2cc3ccsc3n2Cc2ccc(Cl)cc2)CC1` belongs 1060 s. The value for `O=c1c2cc([N+](=O)[O-])ccc2nc(CN2CCN(c3ccccn3)CC2)n1-c1ccccc1F` was 670 s; that for `CN(C)S(=O)(=O)N1CCc2nc(NC(=O)c3cccs3)sc2C1` was 729 s. The value for `CCCn1cc(S(=O)(=O)NCc2cccs2)c2cccnc21` was 833 s; that for `CC(C)Sc1ccc2nn(CC(=O)Nc3ccc(Br)cc3F)c(=O)n2n1` was 843 s; that for `CC1CCCN(Cc2nc(Cn3ccn4nc(-c5ccc(F)cc5)cc4c3=O)no2)C1` (stereo not drawn) was 687 s.

In the case of `COc1cccc(C(=O)N2CCC(c3cc(N)on3)CC2)c1`, the RP-LC retention time was 653 s.

On to `Cc1ccc(N2CCN(C(=O)C3CCCN(c4ncnc5c4nc4n5CCCCC4)C3)CC2)c(C)c1` (stereo not drawn), for which the RP-LC retention time was 1050 s. Consider `CCN(CC)C(=O)c1ccc2c(c1)CCCN2S(C)(=O)=O`, for which the RP-LC retention time came out at 748 s.

The molecule `O=c1c2c(CO)c(-c3ccccc3)nn2ccn1Cc1ccccc1F` came in with an RP-LC retention time of 902 s.

In the case of `Cc1c(S(=O)(=O)N2CCCC(C)C2)c(C)n(C)c1C(=O)N1CCc2ccccc21` (stereo not drawn), the RP-LC retention time was 1070 s. In turn, `CCN1CCn2cc(S(=O)(=O)NCc3ccc(C)cc3)cc2C1=O` registered an RP-LC retention time of 716 s. To `CCn1c(CN(C)C(=O)Nc2ccc3c(c2)OCO3)nc2cc(C(=O)N(C)C)ccc21` belongs 607 s; to `COc1ccc(OC)c(NC(=O)C2CCN(S(=O)(=O)c3ccc4c(c3)NC(=O)C(C)O4)CC2)c1` (stereo not drawn), 856 s; to `CCNC(=O)C1CCN(S(=O)(=O)c2ccc3c(c2)NC(=O)CO3)CC1`, 623 s.

Molecule `CCc1nnc2ccc(-c3noc(Cc4cc(OC)cc(OC)c4)n3)cn12` showed an RP-LC retention time of 844 s. `Cc1ccccc1CNC(=O)CCc1c(-c2ccc(Br)cc2)nc2ccccn12` registered an RP-LC retention time of 722 s. The value for `COc1cc(NC(=O)C2CCCN(c3nc4ccccc4nc3OC)C2)c(OC)cc1Cl` (stereo not drawn) was 1290 s; that for `CN(C)C[C@@H]1CN(C2CCOCC2)C[C@H]1NS(=O)(=O)Cc1cccc(F)c1` was 553 s. In turn, `CC(=O)c1ccc(NC(=O)c2cc(C)nc3ccccc23)cc1` returned an RP-LC retention time of 644 s. Consider `COC[C@@H]1CN(S(=O)(=O)c2ccc(C(C)C)cc2)C[C@H]1c1ccccn1`, for which the RP-LC retention time amounted to 895 s. The value for `Cc1ccc(N2CC(NC(=O)Nc3ncccc3C)CC2=O)cc1` (stereo not drawn) was 573 s; that for `O=C(NCc1cnccn1)c1ccnc(N2CCNC(c3ccccc3)C2)c1` (stereo not drawn) was 581 s. The molecule `CCc1ccc(N2CC(c3noc(-c4ccccc4C)n3)CC2=O)cc1` (stereo not drawn) yielded an RP-LC retention time of 1160 s.

`COc1ccc(C)cc1NC(=O)C1CCN(S(=O)(=O)c2ccc3c(c2)NC(=O)C(C)O3)CC1` (stereo not drawn): the RP-LC retention time is 788 s. To `CCCNC(=O)C1CCN(c2nc3ccsc3c(=O)n2Cc2ccccc2)CC1` belongs 756 s; to `CC(C)c1c(C2CCN(C(=O)c3cccc(Br)c3)CC2)noc1N`, 834 s. The value for `CC(=O)c1cccc(NC(=O)N2C[C@H](c3nc(-c4ccccc4)no3)[C@@H](C)C2)c1` was 938 s; that for `CCN1C(=O)C2(CCN(C(=O)c3c(C)noc3C)CC2)c2ccccc21` was 785 s; that for `O=C1NCCCCCCN(C(=O)c2cc(CN3CCOCC3)on2)[C@H]2CCCC[C@@H]12` was 621 s. The value for `C=CCn1nnnc1SCC(=O)Nc1ccc(C(=O)OC)cc1` was 701 s; that for `COc1ccc(-n2c(=O)c(C(=O)Nc3ccc(OC)c(F)c3)c(O)c3cccnc32)cc1` was 1200 s; that for `Cn1c(C2CCN(C(=O)c3cccc(Cl)c3)C2)nc2ccncc21` (stereo not drawn) was 554 s. On to `CC(C)n1cnc(S(=O)(=O)N2CCCC(C(=O)NCc3ccccc3)C2)c1` (stereo not drawn), for which the RP-LC retention time turned out to be 702 s. The value for `Cc1ccc(CNC(=O)C2(C)CCCN(C(=O)Nc3ccc(F)c(Cl)c3)C2)cc1` (stereo not drawn) was 1030 s; that for `O=C1c2ccccc2C(=O)c2nc(-c3ccccc3)c(-c3ccccc3)nc21` was 1030 s; that for `O=C(CSc1nnc(-c2ccccc2)c(-c2ccccc2)n1)Nc1nccs1` was 840 s. `Cc1ccccc1-c1noc(Cn2c(=O)n(CC(C)C)c(=O)c3ccccc32)n1`: the RP-LC retention time was determined as 1220 s. Consider `Cc1ccn2cc(C(=O)N3CCN(c4cccc(C)c4C)CC3)nc2c1`, for which the RP-LC retention time was determined as 769 s. The value for `Cc1cc2c(cc(C(=O)NCCCc3ccccc3)n2Cc2ccc(Cl)cc2)o1` was 1270 s; that for `CCOc1ccc(-c2noc(C3CC(=O)N(c4ccc5c(c4)OCO5)C3)n2)cc1` (stereo not drawn) was 951 s.

`Clc1ccc(Cl)c(-c2ccc(CNCc3ccco3)o2)c1` yielded an RP-LC retention time of 737 s.

Source of the values: the METLIN SMRT retention time set (Domingo-Almenara et al. 2019).
